Results reported in patent US7875647B2, “Heteroaryl-pyrazole derivatives as cannabinoid CB1 receptor antagonists” (Green Cross Corporation, priority 2006, dated 2011).
pIC50: −log10 of the molar value. Like-named read-outs stand apart in the source and are kept apart here.

Target: T1, Cannabinoid-1 receptor (CB1R) (Rattus norvegicus, UniProt P20272)
T1 construct: The tissue obtained from the brain of SD rats was homogenized; from tissue; host or cells: brain of SD rats (membrane pellet of the homogenate)
Assay: Cannabinoid-1 receptor (CB1R) binding affinity assay ([3H]CP-55940, rat CB-1 receptor binding protocol)
Conditions: brain tissue of SD rats, [3H]CP-55940, 30° C. 60 min; for pIC50: read-out: IC50; for IC50: IC50(nM)

T1 sequence (P20272 whole entry): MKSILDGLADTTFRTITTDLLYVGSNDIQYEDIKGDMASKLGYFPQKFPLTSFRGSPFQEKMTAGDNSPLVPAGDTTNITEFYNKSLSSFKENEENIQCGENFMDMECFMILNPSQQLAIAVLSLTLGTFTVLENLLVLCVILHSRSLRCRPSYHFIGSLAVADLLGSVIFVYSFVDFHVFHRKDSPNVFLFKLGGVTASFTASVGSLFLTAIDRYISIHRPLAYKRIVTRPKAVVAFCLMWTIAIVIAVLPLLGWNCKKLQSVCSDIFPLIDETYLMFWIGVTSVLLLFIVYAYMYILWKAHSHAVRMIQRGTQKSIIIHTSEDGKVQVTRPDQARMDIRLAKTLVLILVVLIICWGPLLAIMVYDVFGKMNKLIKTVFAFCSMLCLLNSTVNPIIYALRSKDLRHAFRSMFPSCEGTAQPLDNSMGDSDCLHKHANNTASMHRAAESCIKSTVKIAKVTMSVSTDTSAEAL

pIC50	Structure (SMILES)	IC50 [nM]
7.56	Cc1c(-c2nnc(C3CCCO3)s2)nn(-c2ccc(Cl)cc2Cl)c1-c1ccc(Cl)cc1 (stereo not shown) [Example 359, 2-(5-(4-Chlorophenyl)-1-(2,4-dichlorophenyl)-4-methyl-1H-pyrazol-3-yl)-5-(tetrahydrofuran-2-yl)-1,3,4-thiadiazole]	–
7.01	Cc1nnc(-c2nn(-c3ccc(Cl)cc3Cl)c(-c3ccc(Cl)cc3)c2C)s1 [Example 360, 2-(5-(4-chlorophenyl)-1-(2,4-dichlorophenyl)-4-methyl-1H-pyrazol-3-yl)-5-methyl-1,3,4-thiadiazole]	–
7.16	CCCCCc1nnc(-c2nn(-c3ccc(Cl)cc3Cl)c(-c3ccc(Cl)cc3)c2C)s1 [Example 361, 2-(5-(4-Chlorophenyl)-1-(2,4-dichlorophenyl)-4-methyl-1H-pyrazol-3-yl)-5-pentyl-1,3,4-thiadiazole]	–
7.44	Cc1c(-c2nnc(C3CCCCCC3)s2)nn(-c2ccc(Cl)cc2Cl)c1-c1ccc(Cl)cc1 [Example 362, 2-(5-(4-Chlorophenyl)-1-(2,4-dichlorophenyl)-4-methyl-1H-pyrazol-3-yl)-5-cycloheptyl-1,3,4-thiadiazole]	–
7.46	Cc1c(-c2nnc(C3CCC3)s2)nn(-c2ccc(Cl)cc2Cl)c1-c1ccc(Br)cc1 [Example 364, 2-(5-(4-Bromophenyl)-1-(2,4-dichlorophenyl)-4-methyl-1H-pyrazol-3-yl)-5-cyclobutyl-1,3,4-thiadiazole]	–
7.69	Cc1c(-c2nnc(CC3CCCCC3)s2)nn(-c2ccc(Cl)cc2Cl)c1-c1ccc(Cl)cc1 [Example 365, 2-(5-(4-Chlorophenyl)-1-(2,4-dichlorophenyl)-4-methyl-1H-pyrazol-3-yl)-5-(cyclohexylmethyl)-1,3,4-thiadiazole]	–
7.74	Cc1c(-c2nnc(C3CCCC3)s2)nn(-c2ccc(Cl)cc2Cl)c1-c1ccc(Br)cc1 [Example 366, 2-(5-(4-Bromophenyl)-1-(2,4-dichlorophenyl)-4-methyl-1H-pyrazol-3-yl)-5-cyclopentyl-1,3,4-thiadiazole]	–
7.61	CCC(C)c1nnc(-c2nn(-c3ccc(Cl)cc3Cl)c(-c3ccc(Cl)cc3)c2C)s1 (stereo not shown) [Example 367, 2-sec-Butyl-5-(5-(4-chlorophenyl)-1-(2,4-dichlorophenyl)-4-methyl-1H-pyrazol-3-yl)-1,3,4-thiadiazole]	–
7.87	CCCC(C)c1nnc(-c2nn(-c3ccc(Cl)cc3Cl)c(-c3ccc(Cl)cc3)c2C)s1 (stereo not shown) [Example 368, 2-(5-(4-Chlorophenyl)-1-(2,4-dichlorophenyl)-4-methyl-1H-pyrazol-3-yl)-5-(pentan-2-yl)-1,3,4-thiadiazole]	–
7.90	Cc1c(-c2nnc(C(C)(C)C)s2)nn(-c2ccc(Cl)cc2Cl)c1-c1ccc(Br)cc1 [Example 369, 2-(5-(4-Bromophenyl)-1-(2,4-dichlorophenyl)-4-methyl-1H-pyrazol-3-yl)-5-tert-butyl-1,3,4-thiadiazole]	–
7.17	Cc1c(-c2nnc(CC3CC3)s2)nn(-c2ccc(Cl)cc2Cl)c1-c1ccc(Cl)cc1 [Example 370, 2-(5-(4-Chlorophenyl)-1-(2,4-dichlorophenyl)-4-methyl-1H-pyrazol-3-yl)-5-(cyclopropylmethyl)-1,3,4-thiadiazole]	–
7.60	Cc1c(-c2nnc(C(C)(C)C)s2)nn(-c2ccc(Cl)cc2Cl)c1-c1ccc(Cl)cc1 [Example 372, 2-tert-Butyl-5-(5-(4-chlorophenyl)-1-(2,4-dichlorophenyl)-4-methyl-1H-pyrazol-3-yl)-1,3,4-thiadiazole]	–
7.69	Cc1c(-c2nnc(C3CCCCC3)s2)nn(-c2ccc(Cl)cc2Cl)c1-c1ccc(Br)cc1 [Example 373, 2-(5-(4-Bromophenyl)-1-(2,4-dichlorophenyl)-4-methyl-1H-pyrazol-3-yl)-5-cyclohexyl-1,3,4-thiadiazole]	–
7.52	CCc1c(-c2nnc(C3CCCCC3)s2)nn(-c2ccc(Cl)cc2Cl)c1-c1ccc(Br)cc1 [Example 374, 2-(5-(4-Bromophenyl)-1-(2,4-dichlorophenyl)-4-ethyl-1H-pyrazol-3-yl)-5-cyclohexyl-1,3,4-thiadiazole]	–
7.73	CCc1c(-c2nnc(C3CCC3)s2)nn(-c2ccc(Cl)cc2Cl)c1-c1ccc(Br)cc1 [Example 375, 2-(5-(4-Bromophenyl)-1-(2,4-dichlorophenyl)-4-ethyl-1H-pyrazol-3-yl)-5-cyclobutyl-1,3,4-thiadiazole]	–
7.73	CCc1c(-c2nnc(C3CCCC3)s2)nn(-c2ccc(Cl)cc2Cl)c1-c1ccc(Br)cc1 [Example 376, 2-(5-(4-Bromophenyl)-1-(2,4-dichlorophenyl)-4-ethyl-1H-pyrazol-3-yl)-5-cyclopentyl-1,3,4-thiadiazole]	–
8.02	CCc1c(-c2nnc(C(C)(C)C)s2)nn(-c2ccc(Cl)cc2Cl)c1-c1ccc(Br)cc1 [Example 377, 2-(5-(4-Bromophenyl)-1-(2,4-dichlorophenyl)-4-ethyl-1H-pyrazol-3-yl)-5-tert-butyl-1,3,4-thiadiazole]	–

pIC50	Structure (SMILES)	IC50 [nM]
7.51	Cc1c(-c2nnc(C3CCCCCC3)s2)nn(-c2ccc(Cl)cc2Cl)c1-c1ccc(Br)cc1 [Example 378, 2-(5-(4-Bromophenyl)-1-(2,4-dichlorophenyl)-4-methyl-1H-pyrazol-3-yl)-5-cycloheptyl-1,3,4-thiadiazole]	–
7.77	CCCCC(C)c1nnc(-c2nn(-c3ccc(Cl)cc3Cl)c(-c3ccc(Cl)cc3)c2C)s1 (stereo not shown) [Example 379, 2-(5-(4-Chlorophenyl)-1-(2,4-dichlorophenyl)-4-methyl-1H-pyrazol-3-yl)-5-(hexan-2-yl)-1,3,4-thiadiazole]	–
–	CCCCC(C)c1nnc(-c2nn(-c3ccc(Cl)cc3Cl)c(-c3ccc(Br)cc3)c2C)s1 (stereo not shown) [Example 380, 2-(5-(4-Bromophenyl)-1-(2,4-dichlorophenyl)-4-methyl-1H-pyrazol-3-yl)-5-(hexan-2-yl)-1,3,4-thiadiazole]	11.5
7.95	Cc1c(-c2nnc(C(C)c3ccccc3)s2)nn(-c2ccc(Cl)cc2Cl)c1-c1ccc(Cl)cc1 (stereo not shown) [Example 381, 2-(5-(4-chlorophenyl)-1-(2,4-dichlorophenyl)-4-methyl-1H-pyrazol-3-yl)-5-(1-phenylethyl)-1,3,4-thiadiazole]	–
7.22	Cc1c(-c2nnc(NC3CCCCC3)s2)nn(-c2ccc(Cl)cc2Cl)c1-c1ccc(Cl)cc1 [Example 382, 5-(5-(4-chlorophenyl)-1-(2,4-dichlorophenyl)-4-methyl-1H-pyrazol-3-yl)-N-cyclohexyl-1,3,4-thiadiazol-2-amine]	–
7.07	Cc1c(-c2nnc(C3CC=CCC3)s2)nn(-c2ccc(Cl)cc2Cl)c1-c1ccc(Cl)cc1 (stereo not shown) [Example 383, 2-(5-(4-chlorophenyl)-1-(2,4-dichlorophenyl)-4-methyl-1H-pyrazol-3-yl)-5-(cyclohex-3-enyl)-1,3,4-thiadiazole]	–
–	Cc1c(-c2nnc(C3CC=CC3)s2)nn(-c2ccc(Cl)cc2Cl)c1-c1ccc(Cl)cc1 [Example 384, 2-(5-(4-chlorophenyl)-1-(2,4-dichlorophenyl)-4-methyl-1H-pyrazol-3-yl)-5-(cyclopent-3-enyl)-1,3,4-thiadiazole]	20.2
7.47	Cc1c(-c2nnc(C(C)Cc3ccccc3)s2)nn(-c2ccc(Cl)cc2Cl)c1-c1ccc(Cl)cc1 (stereo not shown) [Example 385, 2-(5-(4-chlorophenyl)-1-(2,4-dichlorophenyl)-4-methyl-1H-pyrazol-3-yl)-5-(1-phenylpropan-2-yl)-1,3,4-thiadiazole]	–
7.88	CCc1c(-c2nnc(CC3CCCCC3)s2)nn(-c2ccc(Cl)cc2Cl)c1-c1ccc(Br)cc1 [Example 386, 2-(5-(4-bromophenyl)-1-(2,4-dichlorophenyl)-4-ethyl-1H-pyrazol-3-yl)-5-(cyclohexylmethyl)-1,3,4-thiadiazole]	–
7.61	Cc1c(-c2nnc(CC3CCCCC3)s2)nn(-c2ccc(Cl)cc2Cl)c1-c1ccc(Br)cc1 [Example 387, 2-(5-(4-bromophenyl)-1-(2,4-dichlorophenyl)-4-methyl-1H-pyrazol-3-yl)-5-(cyclohexylmethyl)-1,3,4-thiadiazole]	–
8.15	CCCCC(C)c1nnc(-c2nn(-c3ccc(Cl)cc3Cl)c(-c3ccc(Br)cc3)c2CC)s1 (stereo not shown) [Example 388, 2-(5-(4-bromophenyl)-1-(2,4-dichlorophenyl)-4-ethyl-1H-pyrazol-3-yl)-5-(hexan-2-yl)-1,3,4-thiadiazole]	–
7.95	CCc1c(-c2nnc(C(C)(C)C)s2)nn(-c2ccc(Cl)cc2Cl)c1-c1ccc(Cl)cc1 [Example 389, 2-tert-butyl-5-(5-(4-chlorophenyl)-1-(2,4-dichlorophenyl)-4-ethyl-1H-pyrazol-3-yl)-1,3,4-thiadiazole]	–
7.74	CCc1c(-c2nnc(C3CCCCC3)s2)nn(-c2ccc(Cl)cc2Cl)c1-c1ccc(Cl)cc1 [Example 390, 2-(5-(4-chlorophenyl)-1-(2,4-dichlorophenyl)-4-ethyl-1H-pyrazol-3-yl)-5-cyclohexyl-1,3,4-thiadiazole]	–
7.84	Cc1c(-c2nnc(C(C)C3CCCC3)s2)nn(-c2ccc(Cl)cc2Cl)c1-c1ccc(Cl)cc1 (stereo not shown) [Example 391, 2-(5-(4-chlorophenyl)-1-(2,4-dichlorophenyl)-4-methyl-1H-pyrazol-3-yl)-5-(1-cyclopentylethyl)-1,3,4-thiadiazole]	–
7.33	Cc1c(-c2nnc(C(C)C3CCCCC3)s2)nn(-c2ccc(Cl)cc2Cl)c1-c1ccc(Cl)cc1 (stereo not shown) [Example 392, 2-(5-(4-chlorophenyl)-1-(2,4-dichlorophenyl)-4-methyl-1H-pyrazol-3-yl)-5-(1-cyclohexylethyl)-1,3,4-thiadiazole]	–
7.71	Cc1c(-c2nnc(C(C)(C)C3CCCC3)s2)nn(-c2ccc(Cl)cc2Cl)c1-c1ccc(Cl)cc1 [Example 393, 2-(5-(4-chlorophenyl)-1-(2,4-dichlorophenyl)-4-methyl-1H-pyrazol-3-yl)-5-(2-cyclopentylpropan-2-yl)-1,3,4-thiadiazole]	–
7.86	Cc1c(-c2nnc(C(C)(C)C3CCCCC3)s2)nn(-c2ccc(Cl)cc2Cl)c1-c1ccc(Cl)cc1 [Example 394, 2-(5-(4-chlorophenyl)-1-(2,4-dichlorophenyl)-4-methyl-1H-pyrazol-3-yl)-5-(2-cyclohexylpropan-2-yl)-1,3,4-thiadiazole]	–
